Measured values taken from patent publication US20150015931A1, “ELECTROWETTING FLUIDS” (Merck Patent GmbH, priority 2012, published 2015).
Values belong to the compound of their own block, whether it stands above or below them.

Columns and labels:
[1] = Absorbance of the saturated dye solution at 5 micron thickness (Beer-Lambert law, UV-vis); type: physicochemical; settings: in decane; for Absorbance (theoretical), at 5 micron thickness: Table 8
Method: (§1) The absorbance is measured using a Hitachi UV3310 UV-vis spectrophotometer.

[2] = Solubility testing: saturation concentration of dye in non-polar solvent; settings: for Saturation concentration (%): in decane
Method: A typical solubility test consists of one or more dyes dissolved in a suitable non-polar (hydrophobic) solvent, for example decane, at a concentration of 20% by weight for each dye. Samples are first vortex mixed for approximately 3 minutes and sonicated at 50° C. br 30 mins. They are then stirred for approximately 16 hours to ensure complete saturation. After stirring, samples are left to stand at room temperature for 2 hours before filtering through a 200 nm PTFE filter to give a saturated solution of dye in solvent.
The saturation concentrations and/or absorbance data for cells of varying thickness can be derived using the Beer-Lambert law:
Where A is absorbance (arbitrary unit) e=Molar extinction coefficient, c=Concentration (mol/l), l=path length (cm).
as §1

[3] = at the wavelength printed in the row, Table 5
[4] = at the wavelength printed in the row
[5] = at the wavelength printed in the row, Table 6b

Structure (SMILES): CCCCNc1ccc(NCCCC)c2c1C(=O)c1ccccc1C2=O [Solvent Blue 35, reference compound]
Absorbance at wavelength, at 5 micron thickness ([1]; 646 nm, Table 6a): 0.0531 | Absorbance at wavelength, at 5 micron thickness [1, 3]: 0.044 | Absorbance (theoretical), at 5 micron thickness [1, 4]: 0.0531 | Dye saturation concentration % in Decane as solvent [2]: 0.33% | Dye saturation concentration % in (Decane/dye 2 as solvent) [2]: 0.69% | Dye saturation concentration % in (Decane/dye 12 as solvent) [2]: 0.62% | Saturation concentration (%) ([2]; Table 5): 0.385% | Saturation concentration (%) ([2]; Table 6a): 0.385% | Saturation concentration (%) ([2]; Table 8): 0.385%

Absorbance at wavelength, at 5 micron thickness [1, 3]: 0.1579 | Saturation concentration (%) ([2]; Table 5): 0.6%
Structure (SMILES): Cc1ccccc1/N=N/c1ccc(/N=N/c2c(O)ccc3ccccc23)c(C)c1 [Solvent Red 24, reference compound]

Structure (SMILES): CCCCC(CC)COc1cc(/N=N/c2ccc([N+](=O)[O-])cc2[N+](=O)[O-])c(OCC(CC)CCCC)cc1/N=N/c1ccc(N(CC(CC)CCCC)CC(CC)CCCC)cc1C (stereo not shown) [Dye 1b, 4-((E)-(4-((E)-(2,4-Dinitrophenyl)diazenyl)-2,5-bis(2-ethylhexyloxy)phenyl)diazenyl)-3-methyl-N,N-di-(2-ethylhexyl)aniline]
Saturation wt % in decane ([2]; Table 1 Blue/Black Dyes): 17.19 wt %

Dye saturation concentration % in Decane as solvent [2]: 0.19% | Dye saturation concentration % in (Decane/dye 2 as solvent) [2]: 0.62% | Dye saturation concentration % in (Decane/dye 12 as solvent) [2]: 0.41% | Saturation wt % in decane ([2]; Table 3 Magenta Dyes): 0.19 wt %
Structure (SMILES): CCCCCCCCN(CCCCCCCC)c1ccc(/N=N/c2snc(C)c2C#N)c(NC(C)=O)c1 [Dye 11, N-(2-((4-Cyano-3-methylisothiazol-5-yl)diazenyl)-5-(dioctylamino)phenyl)acetamide]

Saturation wt % in decane ([2]; Table 1 Blue/Black Dyes): 15.2 wt %
Structure (SMILES): CCCCCCCCCCCCCCN(CCCCCCCCCCCCCC)c1ccc(/N=N/c2cc(OCC(CC)CCCC)c(/N=N/c3ccc([N+](=O)[O-])cc3[N+](=O)[O-])cc2OCC(CC)CCCC)c(C)c1 (stereo not shown) [Dye 1f, 4-((E)-(4-((E)-(2,4-Dinitrophenyl)diazenyl)-2,5-bis(2-ethylhexyloxy)phenyl)diazenyl)-3-methyl-N,N-di-n-tetradecylaniline]

Absorbance at wavelength, at 5 micron thickness ([1]; 646 nm, Table 6a): 0.0938 | Absorbance at wavelength, at 5 micron thickness [1, 3]: 0.114 | Absorbance (theoretical), at 5 micron thickness [1, 4]: 0.0938 | Dye saturation concentration % in Decane as solvent [2]: 0.62% | Dye saturation concentration % in (Decane/dye 2 as solvent) [2]: 1.34% | Dye saturation concentration % in (Decane/dye 12 as solvent) [2]: 1.14% | Saturation concentration (%) ([2]; Table 5): 0.657% | Saturation concentration (%) ([2]; Table 6a): 0.657% | Saturation concentration (%) ([2]; Table 8): 0.66%
Structure (SMILES): CCCCCNc1ccc(NCCCCC)c2c1C(=O)c1ccccc1C2=O [Oil Blue N, reference compound]

Saturation wt % in decane ([2]; Table 1 Blue/Black Dyes): 5.17 wt %
Structure (SMILES): CCCCCCCCCCCCN(CCCCCCCCCCCC)c1ccc(/N=N/c2cc(OCC(CC)CCCC)c(/N=N/c3ccc([N+](=O)[O-])cc3[N+](=O)[O-])cc2OCC(CC)CCCC)c(C)c1 (stereo not shown) [Dye 1e, 4-((E)-(4-((E)-(2,4-Dinitrophenyl)diazenyl)-2,5-bis(2-ethylhexyloxy)phenyl)diazenyl)-3-methyl-N,N-di-n-dodecylaniline]

Saturation wt % in decane ([2]; Table 1 Blue/Black Dyes): 2.39 wt %
Structure (SMILES): CCCCCCCCCCN(CCCCCCCCCC)c1ccc(/N=N/c2cc(OCC(CC)CCCC)c(/N=N/c3ccc([N+](=O)[O-])cc3[N+](=O)[O-])cc2OCC(CC)CCCC)c(C)c1 (stereo not shown) [Dye 1d, 4-((E)-(4-((E)-(2,4-Dinitrophenyl)diazenyl)-2,5-bis(2-ethylhexyloxy)phenyl)diazenyl)-3-methyl-N,N-di-n-decylaniline]

Absorbance at wavelength, at 5 micron thickness [1, 5]: 0.915 | Saturation wt % in decane ([2]; Table 4 Yellow Dyes): 3.72 wt % | Saturation concentration (%) ([2]; Table 6b): 3.72%
Structure (SMILES): CCCCCCCCCCCCCCc1ccc(/N=N/c2c(C)cc(=O)n(CC(CC)CCCC)c2O)cc1 (stereo not shown) [Dye 13, (E)-1-(2-ethylhexyl)-6-hydroxy-4-methyl-5-((4-tetradecylphenyl)diazenyl)pyridin-2(1H)-one]

Structure (SMILES): CCCCCCCCN(CCCCCCCC)c1ccc(/N=N/c2ccc([N+](=O)[O-])cc2)c(C)c1 [Dye 15, (E)-3-Methyl-4-((4-nitrophenyl)diazenyl)-N,N-dioctylaniline]
Absorbance at wavelength, at 5 micron thickness [1, 3]: 2.765 | Saturation wt % in decane ([2]; Table 4 Yellow Dyes): 10.50 wt % | Saturation concentration (%) ([2]; Table 5): 8.58%

Dye saturation concentration % in Decane as solvent [2]: 0.003% | Dye saturation concentration % in (Decane/dye 2 as solvent) [2]: 0.18% | Dye saturation concentration % in (Decane/dye 12 as solvent) [2]: 0.18% | Saturation wt % in decane ([2]; Table 2 Cyan Dyes): 0.003 wt %
Structure (SMILES): CCCCCCCCCCCCCCCCCCN(CCCCCCCCCCCCCCCCCC)c1cc(NC(C)=O)c(/N=N/c2c(C#N)cc([N+](=O)[O-])cc2C#N)cc1OC [Dye 8, N-(2-((2,6-Dicyano-4-nitrophenyl)diazenyl)-5-(dioctadecylamino)-4-methoxyphenyl)acetamide]

Saturation wt % in decane ([2]; Table 1 Blue/Black Dyes): 16.67 wt %
Structure (SMILES): CCCCCCCCCCCCN(CCC(C)CC(C)(C)C)c1ccc(/N=N/c2cc(OCC(CC)CCCC)c(/N=N/c3ccc([N+](=O)[O-])cc3[N+](=O)[O-])cc2OCC(CC)CCCC)c(C)c1 (stereo not shown) [Dye 1g, 4-((E)-(4-((E)-(2,4-Dinitrophenyl)diazenyl)-2,5-bis(2-ethylhexyloxy)phenyl)diazenyl)-3-methyl-N-dodecyl-N-(3,5,5-trimethylhexyl)aniline]

Saturation wt % in decane ([2]; Table 1 Blue/Black Dyes): 3.53 wt %
Structure (SMILES): CCCCC(CC)COc1cc(/N=N/c2ccc([N+](=O)[O-])cc2[N+](=O)[O-])c(OCC(CC)CCCC)cc1/N=N/c1ccc(N(CCC(C)CC(C)(C)C)CCC(C)CC(C)(C)C)cc1C (stereo not shown) [Dye 1c, 4-((E)-(4-((E)-(2,4-Dinitrophenyl)diazenyl)-2,5-bis(2-ethylhexyloxy)phenyl)diazenyl)-3-methyl-N,N-d i-(3,5,5-trimethylhexyl)aniline]

Absorbance at wavelength, at 5 micron thickness [1, 3]: 0.2594 | Dye saturation concentration % in Decane as solvent [2]: 1.17% | Dye saturation concentration % in (Decane/dye 2 as solvent) [2]: 1.91% | Dye saturation concentration % in (Decane/dye 12 as solvent) [2]: 1.49% | Saturation concentration (%) ([2]; Table 5): 1.615%
Structure (SMILES): Cc1ccc(C)c(N=Nc2cc(C)c(N=Nc3c(O)ccc4ccccc34)cc2C)c1 [Oil Red O, reference compound]

Saturation wt % in decane ([2]; Table 4 Yellow Dyes): 9.95 wt %
Structure (SMILES): CCCCc1ccc(/N=N/c2ccc(N(CCCC)CCCC)cc2)cc1 [Dye 14]

Absorbance at wavelength, at 5 micron thickness [1, 5]: 0.332 | Saturation wt % in decane ([2]; Table 4 Yellow Dyes): 1.03 wt % | Saturation concentration (%) ([2]; Table 6b): 1.03%
Structure (SMILES): CCCCCCCCCCCCCCc1ccc(/N=N/c2c(C)c(C#N)c(=O)n(CC(CC)CCCC)c2O)cc1 (stereo not shown) [Dye 12, (E)-1-(2-Ethylhexyl)-6-hydroxy-4-methyl-2-oxo-5-((4-tetradecylphenyl)diazenyl)-1,2-dihydropyridine-3-carbonitrile]

Structure (SMILES): CCCCCCCCN(CCCCCCCC)c1ccc(/N=N/c2cc(OCC(CC)CCCC)c(/N=N/c3ccc([N+](=O)[O-])cc3[N+](=O)[O-])cc2OCC(CC)CCCC)c(C)c1 (stereo not shown) [Dye 1a, 4-((E)-(4-((E)-(2,4-Dinitrophenyl)diazenyl)-2,5-bis(2-ethylhexyloxy)phenyl)diazenyl)-3-methyl-N,N-dioctylaniline]
Absorbance (theoretical), at 5 um thickness ([1]; at the wavelength printed in the row, Table 7): 0.188 | Saturation wt % in decane ([2]; Table 1 Blue/Black Dyes): 100 wt % | Saturation concentration (%) ([2]; Table 7): 1.000%
